Test results as given in ChEMBL document CHEMBL1201862, “PubChem BioAssay data set” (2004).
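In this assay, cells in 96-well plates receive the compound at five concentrations for 48 hours. Endpoints are linearly interpolated between the surrounding concentrations. GI50 marks 50% less growth.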 Active and inactive are the calls of the source. Cut-off read from the data, not from the text of the source: active = GI50 up to about 1.1 µM and inactive = higher.

Legend:
Assay in all cases: growth of human tumour cells (NCI), 48 h
HOP-62 = test system: HOP-62
SF-539 = test system: SF-539
K562 = test system: K562
HOP-92 = test system: HOP-92
NCI-H226 = test system: NCI-H226
COLO 205 = test system: COLO 205
SW-620 = test system: SW-620
SF-295 = test system: SF-295
SF-268 = test system: SF-268
UACC-62 = test system: UACC-62
M19-MEL = test system: M19-MEL
CAKI-1 = test system: CAKI-1
HCC 2998 = test system: HCC 2998
SN12C = test system: SN12C
SK-MEL-28 = test system: SK-MEL-28
ACHN = test system: ACHN
RPMI-8226 = test system: RPMI-8226

Nc1nc(OCc2ccccc2)c2nc[nH]c2n1 [6-O-BENZYLGUANINE]
GI50 (HOP-62): 51.6 µM (inactive)
GI50 (SF-539): 91.4 µM (inactive)
GI50 (K562): 86.5 µM (inactive)
GI50 (HOP-92): 64.4 µM (inactive)
GI50 (NCI-H226): 47.5 µM (inactive)
GI50 (COLO 205): 124 µM (inactive)
GI50 (SW-620): 169 µM (inactive)
GI50 (SF-295): 121 µM (inactive)
GI50 (SF-268): 70 µM (inactive)
GI50 (UACC-62): 44.2 µM (inactive)
GI50 (M19-MEL): 198 µM (inactive)
GI50 (CAKI-1): 23.1 µM (inactive)
GI50 (HCC 2998): 148 µM (inactive)
GI50 (SN12C): 90.4 µM (inactive)
GI50 (SK-MEL-28): 140 µM (inactive)
GI50 (ACHN): 47.4 µM (inactive)

C(=C1/CCCCC([n+]2ccccc2)=N1)/c1ccccc1
GI50 (HOP-62): > 100 µM (inactive)
GI50 (SF-539): > 100 µM (inactive)
GI50 (K562): > 100 µM (inactive)
GI50 (HOP-92): > 100 µM (inactive)
GI50 (NCI-H226): > 100 µM (inactive)
GI50 (COLO 205): > 100 µM (inactive)
GI50 (SW-620): > 100 µM (inactive)
GI50 (RPMI-8226): > 100 µM (inactive)
GI50 (SF-295): > 100 µM (inactive)
GI50 (SF-268): > 100 µM (inactive)
GI50 (UACC-62): > 100 µM (inactive)
GI50 (M19-MEL): > 100 µM (inactive)
GI50 (CAKI-1): > 100 µM (inactive)
GI50 (HCC 2998): > 100 µM (inactive)
GI50 (SN12C): > 100 µM (inactive)
GI50 (SK-MEL-28): > 100 µM (inactive)
GI50 (ACHN): > 100 µM (inactive)

Cc1cccc(C)c1NC(=O)C(=O)C(C#N)c1ccccc1Cl (stereo unspecified)
GI50 (HOP-62): > 100 µM (inactive)
GI50 (SF-539): > 100 µM (inactive)
GI50 (K562): > 100 µM (inactive)
GI50 (HOP-92): > 100 µM (inactive)
GI50 (NCI-H226): > 100 µM (inactive)
GI50 (COLO 205): > 100 µM (inactive)
GI50 (SW-620): > 100 µM (inactive)
GI50 (RPMI-8226): > 100 µM (inactive)
GI50 (SF-295): > 100 µM (inactive)
GI50 (SF-268): > 100 µM (inactive)
GI50 (UACC-62): > 100 µM (inactive)
GI50 (M19-MEL): > 100 µM (inactive)
GI50 (CAKI-1): > 100 µM (inactive)
GI50 (HCC 2998): > 100 µM (inactive)
GI50 (SN12C): > 100 µM (inactive)
GI50 (SK-MEL-28): > 100 µM (inactive)
GI50 (ACHN): > 100 µM (inactive)

N[C@H](COCc1ccccc1)c1ccccc1
GI50 (HOP-62): > 46.5 µM (inactive)
GI50 (SF-539): 27.9 µM (inactive)
GI50 (K562): 28 µM (inactive)
GI50 (HOP-92): 23.1 µM (inactive)
GI50 (NCI-H226): 27.7 µM (inactive)
GI50 (COLO 205): 14.9 µM (inactive)
GI50 (SW-620): 28.2 µM (inactive)
GI50 (RPMI-8226): 13.1 µM (inactive)
GI50 (SF-295): 30.5 µM (inactive)
GI50 (SF-268): 42.1 µM (inactive)
GI50 (UACC-62): 32.1 µM (inactive)
GI50 (M19-MEL): 25 µM (inactive)
GI50 (CAKI-1): 23.7 µM (inactive)
GI50 (HCC 2998): 29.9 µM (inactive)
GI50 (SN12C): 27.7 µM (inactive)
GI50 (SK-MEL-28): 59.8 µM (inactive)
GI50 (ACHN): 31.5 µM (inactive)

CC#CC#C/C=C1\C=CC2(OC=CC2O)O1 (stereo unspecified)
GI50 (HOP-62): > 23.3 µM (inactive)
GI50 (SF-539): > 14.9 µM (inactive)
GI50 (K562): 11.6 µM (inactive)
GI50 (HOP-92): 7.13 µM (inactive)
GI50 (NCI-H226): > 15.8 µM (inactive)
GI50 (COLO 205): 3.28 µM (inactive)
GI50 (SW-620): 8.28 µM (inactive)
GI50 (RPMI-8226): 13.4 µM (inactive)
GI50 (SF-295): > 23.3 µM (inactive)
GI50 (SF-268): > 23.3 µM (inactive)
GI50 (UACC-62): 9.59 µM (inactive)
GI50 (M19-MEL): 15.3 µM (inactive)
GI50 (CAKI-1): 14.8 µM (inactive)
GI50 (HCC 2998): > 16.2 µM (inactive)
GI50 (SN12C): > 23.3 µM (inactive)
GI50 (SK-MEL-28): 13.3 µM (inactive)
GI50 (ACHN): > 23.3 µM (inactive)

CCc1cccc(C(C)C)c1NC(=O)C(=O)C(Cc1nc2ccccc2nc1O)C(=O)OC (stereo unspecified)
GI50 (HOP-62): > 100 µM (inactive)
GI50 (SF-539): > 100 µM (inactive)
GI50 (K562): > 100 µM (inactive)
GI50 (HOP-92): > 100 µM (inactive)
GI50 (NCI-H226): > 100 µM (inactive)
GI50 (COLO 205): 43.8 µM (inactive)
GI50 (RPMI-8226): 39.2 µM (inactive)
GI50 (SF-295): > 100 µM (inactive)
GI50 (SF-268): 67.9 µM (inactive)
GI50 (UACC-62): > 100 µM (inactive)
GI50 (M19-MEL): > 100 µM (inactive)
GI50 (CAKI-1): > 100 µM (inactive)
GI50 (HCC 2998): > 100 µM (inactive)
GI50 (SN12C): > 100 µM (inactive)
GI50 (SK-MEL-28): > 100 µM (inactive)
GI50 (ACHN): > 100 µM (inactive)

C1OC1C1CO1 (stereo unspecified)
GI50 (HOP-62): 17.3 µM (inactive)
GI50 (SF-539): 59.8 µM (inactive)
GI50 (K562): 80.2 µM (inactive)
GI50 (HOP-92): > 100 µM (inactive)
GI50 (NCI-H226): > 100 µM (inactive)
GI50 (COLO 205): > 100 µM (inactive)
GI50 (SW-620): 86.3 µM (inactive)
GI50 (RPMI-8226): > 100 µM (inactive)
GI50 (SF-295): 10.3 µM (inactive)
GI50 (SF-268): 6.43 µM (inactive)
GI50 (UACC-62): 13.6 µM (inactive)
GI50 (M19-MEL): 58.9 µM (inactive)
GI50 (CAKI-1): > 100 µM (inactive)
GI50 (HCC 2998): 96.4 µM (inactive)
GI50 (SN12C): 93.1 µM (inactive)
GI50 (SK-MEL-28): 51.8 µM (inactive)

O=C1c2ccccc2C(=O)c2c(O)c(NCCNCCO)cc(O)c21
GI50 (HOP-62): 3.93 µM (inactive)
GI50 (SF-539): 4.93 µM (inactive)
GI50 (K562): 2.75 µM (inactive)
GI50 (HOP-92): 11.1 µM (inactive)
GI50 (NCI-H226): 3.83 µM (inactive)
GI50 (SW-620): 2.79 µM (inactive)
GI50 (RPMI-8226): 3.88 µM (inactive)
GI50 (SF-295): 10.2 µM (inactive)
GI50 (SF-268): 4.29 µM (inactive)
GI50 (UACC-62): 11.5 µM (inactive)
GI50 (M19-MEL): 3.62 µM (inactive)
GI50 (CAKI-1): 2.08 µM (inactive)
GI50 (HCC 2998): 3.78 µM (inactive)
GI50 (SN12C): 3.99 µM (inactive)
GI50 (SK-MEL-28): 5.11 µM (inactive)
GI50 (ACHN): 2.17 µM (inactive)

Cc1cc2c3ccccc3n3c2c2c1OC1(C)CCC(C2C1)C3(C)C (stereo unspecified)
GI50 (HOP-62): > 25 µM (inactive)
GI50 (SF-539): > 25 µM (inactive)
GI50 (K562): > 25 µM (inactive)
GI50 (HOP-92): > 25 µM (inactive)
GI50 (NCI-H226): > 25 µM (inactive)
GI50 (COLO 205): > 25 µM (inactive)
GI50 (SW-620): > 25 µM (inactive)
GI50 (RPMI-8226): > 25 µM (inactive)
GI50 (SF-268): > 25 µM (inactive)
GI50 (UACC-62): > 25 µM (inactive)
GI50 (M19-MEL): > 25 µM (inactive)
GI50 (HCC 2998): > 25 µM (inactive)
GI50 (SN12C): > 25 µM (inactive)
GI50 (SK-MEL-28): > 25 µM (inactive)
GI50 (ACHN): > 25 µM (inactive)

O=C1OC(c2ccccc2)=N/C1=C/NC(CO)C(=O)O (stereo unspecified)
GI50 (HOP-62): > 100 µM (inactive)
GI50 (SF-539): > 100 µM (inactive)
GI50 (K562): > 100 µM (inactive)
GI50 (HOP-92): > 100 µM (inactive)
GI50 (NCI-H226): > 100 µM (inactive)
GI50 (COLO 205): > 100 µM (inactive)
GI50 (SW-620): > 100 µM (inactive)
GI50 (RPMI-8226): > 100 µM (inactive)
GI50 (SF-295): > 100 µM (inactive)
GI50 (SF-268): > 100 µM (inactive)
GI50 (UACC-62): > 100 µM (inactive)
GI50 (M19-MEL): > 100 µM (inactive)
GI50 (CAKI-1): > 100 µM (inactive)
GI50 (HCC 2998): > 100 µM (inactive)
GI50 (SK-MEL-28): > 100 µM (inactive)
GI50 (ACHN): > 100 µM (inactive)

Clc1ccc2nc(-c3ccccc3)nc(Cl)c2c1
GI50 (HOP-62): 23.9 µM (inactive)
GI50 (SF-539): 46.6 µM (inactive)
GI50 (K562): > 100 µM (inactive)
GI50 (HOP-92): 25.4 µM (inactive)
GI50 (NCI-H226): 34 µM (inactive)
GI50 (COLO 205): > 100 µM (inactive)
GI50 (SW-620): > 100 µM (inactive)
GI50 (RPMI-8226): > 100 µM (inactive)
GI50 (SF-295): 46.3 µM (inactive)
GI50 (SF-268): 52.8 µM (inactive)
GI50 (UACC-62): 49.8 µM (inactive)
GI50 (M19-MEL): 58.2 µM (inactive)
GI50 (CAKI-1): 21.1 µM (inactive)
GI50 (HCC 2998): 40.2 µM (inactive)
GI50 (SN12C): > 100 µM (inactive)
GI50 (SK-MEL-28): 80.5 µM (inactive)
GI50 (ACHN): 24.9 µM (inactive)

COc1ccc(C[C@H](N)C(=O)NC2C(CO)OC(n3cnc4c(N(C)C)ncnc43)C2O)cc1 (stereo partly specified)
GI50 (HOP-62): 0.427 µM (active)
GI50 (K562): 0.133 µM (active)
GI50 (HOP-92): 0.196 µM (active)
GI50 (NCI-H226): 0.174 µM (active)
GI50 (COLO 205): 0.154 µM (active)
GI50 (SW-620): 0.143 µM (active)
GI50 (RPMI-8226): 0.22 µM (active)
GI50 (SF-295): 0.34 µM (active)
GI50 (SF-268): 0.354 µM (active)
GI50 (UACC-62): 0.152 µM (active)
GI50 (M19-MEL): 0.296 µM (active)
GI50 (HCC 2998): 0.29 µM (active)
GI50 (SN12C): 0.178 µM (active)
GI50 (SK-MEL-28): 0.187 µM (active)
GI50 (ACHN): 1.01 µM (active)

CCOC(=O)C1CC/C(=C(/C#N)C(=O)OC)N1 (stereo unspecified)
GI50 (HOP-62): > 100 µM (inactive)
GI50 (SF-539): > 100 µM (inactive)
GI50 (K562): > 100 µM (inactive)
GI50 (HOP-92): > 100 µM (inactive)
GI50 (COLO 205): > 100 µM (inactive)
GI50 (SW-620): > 100 µM (inactive)
GI50 (RPMI-8226): > 100 µM (inactive)
GI50 (SF-295): > 100 µM (inactive)
GI50 (SF-268): > 100 µM (inactive)
GI50 (UACC-62): 31.8 µM (inactive)
GI50 (M19-MEL): > 100 µM (inactive)
GI50 (CAKI-1): > 100 µM (inactive)
GI50 (HCC 2998): > 100 µM (inactive)
GI50 (SN12C): > 100 µM (inactive)
GI50 (SK-MEL-28): > 100 µM (inactive)
GI50 (ACHN): > 100 µM (inactive)
